Measurements reported in patent US20230414754A1, “CONDITIONAL CONTROL OF UNIVERSAL CAR T CELLS THROUGH STIMULUS-REACTIVE ADAPTORS” (UNIVERSITY OF PITTSBURGH-OF THE COMMONWEALTH SYSTEM OF …, priority 2020, published 2023).

Tests used:
[1] = test system: SNAP-synNotch receptor; assay: SNAP-synNotch receptor activation in Jurkat cells co-incubated with target cells (TagBFP output); assay type: cell-based
Text: 51. […] The system triggers Gal4-VP64 transcription factor-driven TagRFP expression. […] TagRFP levels are reported as mean fluorescence intensity (MFI), n=3 biologically independent experiments±s.d.
176. We created a universal adaptor synNotch to direct receptor activation and the resulting transcriptional gene output in response to interaction with BG-conjugated adaptor antibodies on the surface of target cells (FIG. 22). We cloned a SNAP-synNotch receptor consisting of the SNAPtag domain fused to the Notch core protein, and the Gal4-transcription factor (to turn on a gal4 promoter-driven TagBFP gene) and transduced Jurkat cells. […] Receptor activation was sensitive and tunable, with a significant response at an antibody concentration as low as 0.04 μglmL and increasing to a peak at 0.25 μg/mL. Response gene activation then decreased with increasing antibody indicative of a “hook effect”—as expected in ternary complex formation. BG-conjugated antibodies targeting other antigens were also capable of activating the SNAP-synNotch receptor in an antigen-specific manner indicating universality of the cell re-programming approach.

[2] = test system: SNAPtag; assay: Incubation of MTGase-made adaptor with SNAP protein, SDS-PAGE; assay type: biochemical; conditions: SNAPtag 2 eq. per BG
Protocol: (§1) 55. FIGS. 26A and 26B show MTGase enzymatic antibody-adaptor conjugation. […] CD69 T cell activation marker expression on the CAR T cells was evaluated after 24 h. n=3 biol. reps.
(§2) 187. In a complementary, enzymatic conjugation approach we synthesized the terminal amine 11 from the commercially available PEG 10 (FIG. 12A), and target a conserved glutamine located in each of the heavy chains of the de-glycosylated IgG1 antibody through selective modification by the enzyme MTGase (FIG. 12B). This generates uniform conjugates in quantitative yields adding exactly two modifications using conserved glutamines as the only γ-carbonyl amide donors on dei-glycosylated IgGls, This method that has been used for dozens of clinical use ADCs. […] In addition, the site-specific adaptor was efficient at inducing T cell activity (FIG. 26B).

[3] = test system: CD20+ Raji target cells; assay: SNAP-CAR T cell activation (CD69) with MTGase-produced site-specific adaptor; assay type: cell-based, human; conditions: CD69 after 24 h
Protocol: as §1, §2

Substance | function of universal adaptor synNotch system [1] | BG labeling by incubation with SNAP protein [2] | inducing T cell activity [3]
mSA2 | ineffective | – | –
RTX-BG: PEG2-BG labeled Rituximab adaptor made via MTGase conjugation | – | near complete | efficient
